Data on seven molecules can be found in patent US9625466B2, “Signal amplification methods for the imaging of protein synthesis and neurotransmitter transport” (CORNELL UNIVERSITY, priority 2011, dated 2017).

Where “and” joins values, the source holds several entries; their conditions need not be identical. Equal entries are not always repeated. Where two headings read alike, the source gives them in different places. Marks after values point to notes of the source that are not given here.

The target of experiment [1] is T1, ternary complex (Escherichia coli, UniProt P0CE48).
T1 construct: 6-His tag followed by TEV protease site (N); made in house; host or cells: E. coli (bacterial expression vector pPROEX-Ht-b)
The experiment is described as follows: Equilibrium titration of nucleotide into Cy3-labeled Phe-tRNAPhe with saturating EF-Tu. The settings on record: for RF Increase (%): Cy3 relative fluorescence increase at saturation, nucleotide titrated. It is filed as binding, E. coli. From the text:
Initial experiments focused on the molecular determinants of ternary complex formation in vitro using E. coli EF-Tu and tRNA^Phe. […] Depending on the solution conditions of the experiment, the formation of ternary complex can be detected as either a rise or fall in fluorescence intensity depending strongly on the solution conditions of the Cy3 fluorophore linked to tRNA^Phe. Other tRNA species (e.g., Cy3-labeled tRNA^Lys) undergo similar changes in fluorescence intensity.
Fluorescence experiments were performed using a Photon Technology International fluorescence meter with a 550 nm high pass filter on the emission side. All samples were analyzed in a 3 mL quartz cuvette, with a stir bar, maintained at 23° C. […] Fluorescence intensity was measured by exciting Cy3 labeled tRNA^Phe with 532 nm light and recording emission intensities at 565 nm. The sample was allowed to mix for 1 minute after each subsequent addition of reagent before data acquisition.
[formula] (Abrahamson 1985). Values of Kd were obtained by performing a nonlinear least squares fit of the data from fluorescence experiments to equation 5 in Matlab (R2011a). The best-fit values are reported with asymptotic 95% confidence intervals.
To assess the affinity and nature of GTP's interactions with ternary complex, analogous titration experiments were carried out in which GTP was added to a solution of 5 nM Phe-tRNA^Phe (Cy3-acp3U47) in the presence of saturating concentrations of EF-Tu (40 times IQ). […] The non-hydrolysable analogs each saturated at a relative fluorescence value well below 30%, illustrating EF-Tu's sensitivity to the position of the gamma phosphate.

In the next experiment the target is EF-Tu (Escherichia coli, UniProt P0CE47). The conditions noted are these: cited from earlier work.
Experiment [2] deals with T1, ternary complex. Put plainly: Functional drug assay: dissociation of pre-formed fluorescent ternary complex. It is filed as biochemical, E. coli. The conditions noted are these: for kapp,2 apparent rate of ternary complex dissociation: compound added to pre-formed ternary complex (400 nM EF-Tu/EF-Ts, 5 nM Cy3 Phe-tRNAPhe, 10 μM GTP), GDP 100 μM. The procedure:
After ternary complex was formed, drug was added to a final concentration of 1 μM. Decay curves were fit using non-linear least squares method as previously mentioned.
To test this hypothesis, ternary complex was formed at low, saturating concentrations of GTP (10 μM). […] To the formed complex, 100 μM GDP was then added and the rate of ternary complex dissociation was followed as a function of time.
To illustrate the dynamic equilibrium that exists between ternary complex and its constituents, EF-Tu-targeting drugs were delivered to pre-formed ternary complex in the same manner as GDP described above.

Experiment [3] concerns Phe-tRNA^Phe. The settings on record: for RF Increase (%): Cy3 relative fluorescence increase on ternary complex formation, EF-Tu titrated.
Experiment [4] deals with Phe-tRNA^Phe. The conditions noted are these: 4° C., pH 7.4; cited from earlier work.
Experiment [5] concerns Phe-tRNA^Phe.
[6] abbreviates: 5 nM Phe-tRNAPhe (Cy3-acp3U47), saturating EF-Tu (400 nM EF-Tu/EF-Ts), read-out: Kd (apparent affinity of nucleotide for ternary complex).

As to `Nc1nc2c(ncn2[C@@H]2O[C@H](COP(=O)(O)OP(=O)(O)NP(=O)(O)O)[C@@H](O)[C@H]2O)c(=O)[nH]1` [GDPNP, guanylyl-imino-diphosphate], at ternary complex [1] (setting [6]), the Kd stood at 9270 nM. For the same molecule, the “RF Increase (%)” value on ternary complex [1] was found to be 7.3%.
As for `Nc1nc2c(ncn2[C@@H]2O[C@H](COP(=O)(O)OP(=O)(O)O)[C@@H](O)[C@H]2O)c(=O)[nH]1` [GDP], at EF-Tu (EF-Tu), the “affinity for GDP relative to GTP” value is given as 40 fold. On EF-Tu (Gromadski 2002), the “dissociation rate of GDP from EF-Tu•GDP•EF-Ts” value was 125 s⁻¹. The “kapp,2 apparent rate of ternary complex dissociation” value at ternary complex [2] is 0.3 s⁻¹ and 0.30 s⁻¹.
In the case of Kirromycin, the “reduction of relative fluorescence” value at ternary complex [2] (1 μM added to pre-formed ternary complex) is recorded as approximately 20%. The “kapp,2 rate of GDP mediated dissociation in the presence of kirromycin” value at ternary complex [2] (1 μM kirromycin, then GDP) was 0.02* s^−1. The “dissociation of ternary complex by saturating GDP with kirromycin present” value on ternary complex [2] (1 μM kirromycin, then saturating GDP) is on record as “did not dissociate ternary complex in the time frame observed”.
For the molecule “EF-Tu (GTP): elongation factor Tu from E. coli, GTP-bound form, added as EF-Tu/EF-Ts complex”, the “RF Increase (%)” value in the experiment with Phe-tRNA^Phe [3] is 30%; in the experiment on Phe-tRNA^Phe [3] (listed as EF-Tu) it was “approximately 30%”. In addition, the Kd is 12.7 ± 1.1 nM on Phe-tRNA^Phe [3] (read-out: Kd (apparent dissociation constant between EF-Tu•GTP and Phe-tRNAPhe), 5 nM Phe-tRNAPhe (Cy3-acp3U47), 10 μM GTP, 23° C., ± 95% CI); 12.6 nM on Phe-tRNA^Phe [3] (read-out: Kd (apparent dissociation constant between EF-Tu•GTP and Phe-tRNAPhe), 5 nM Phe-tRNAPhe (Cy3-acp3U47), 10 μM GTP, 23° C., ± 95% CI, listed as EF-Tu•GTP); not above 15 nM at Phe-tRNA^Phe [3] (read-out: Kd of EF-Tu's interaction with Phe-tRNAPhe, Example 2, saturating GTP (>10 μM)). Moreover, in the experiment with Phe-tRNA^Phe [4], the “rate of association determined previously” value was 1.5e+06 M⁻¹ s⁻¹. This molecule displayed an association constant kon in the experiment on Phe-tRNA^Phe [5] (EF-Tu and GTP (10 μM) added to 5 nM Cy3-labeled Phe-tRNAPhe) of 1.4e+06 M⁻¹ s⁻¹. Further, the dissociation rate koff in the experiment on Phe-tRNA^Phe [5] (fit of triplicate time course to equation 7) is 0.08 s⁻¹.
As for `Nc1nc2c(ncn2[C@@H]2O[C@H](COP(=O)(O)OP(=O)(O)OP(=O)(O)O)[C@@H](O)[C@H]2O)c(=O)[nH]1` [GTP, guanosine nucleotide triphosphate], the Kd on ternary complex [1] (setting [6]) was 696 nM; on ternary complex [1] (Example 2, saturating EF-Tu (~300 nM), read-out: affinity of GTP in the formation of ternary complex) it was approximately 200 nM. Besides, the “RF Increase (%)” value at ternary complex [1] is listed as 30%. Besides, on ternary complex [1] (model, from koff 0.3 s^−1 and KD), the “kon of GTP for the complex (kon=koff/KD)” value was approximately 1e+06 M⁻¹ s⁻¹.
As to `Nc1nc2c(ncn2[C@@H]2O[C@H](COP(=O)(O)OP(=O)(O)OP(O)(O)=S)[C@@H](O)[C@H]2O)c(=O)[nH]1` [GDPγS, guanosine 5′[γ-thio]triphosphate], at ternary complex [1], the Kd came to 3670 nM and the “RF Increase (%)” value was 5.5%.
Turning to `C=C(NC(=O)C(=C)NC(=O)c1csc(C2=N[C@@H]3c4csc(n4)[C@H]4NC(=O)c5csc(n5)[C@H]([C@](C)(O)[C@@H](C)O)NC(=O)[C@H]5CSC(=N5)/C(=C/C)NC(=O)[C@H]([C@@H](C)O)NC(=O)c5csc(n5)[C@]3(CC2)NC(=O)[C@H](C)NC(=O)C(=C)NC(=O)[C@H](C)NC(=O)[C@H]([C@@H](C)CC)N[C@@H]2C=Cc3c([C@H](C)O)cc(nc3[C@H]2O)C(=O)O[C@@H]4C)n1)C(N)=O` [Thiostrepton], the “kapp,2 apparent rate of ternary complex dissociation” value at ternary complex [2] was 0 s⁻¹. At ternary complex [2] (thiostrepton added to pre-formed ternary complex (10 μM per FIG. 17)), the “disruption of the ternary complex” value is on record as “did not lead to disruption of the ternary complex”.
